According to patent publication US8748407B2 (The Research Foundation for the State University of New York, priority 2010, dated 2014):

Key:
GluK2 = biological target: T1, GluK2 (Rattus norvegicus, UniProt P42260); assay: Whole-cell current recording, kainate receptor GluK2; type: cell-based
T1 construct: expressed in transfected cells; host or cells: HEK-293S
Excerpt: The original cDNAs in pBlueScript encoding rat GluA1, 2 and 3 AMPA receptors and GluK2 kainate receptor were kindly provided by Steve Heinemann. The GluA4 DNA plasmid was kindly provided by Peter Seeburg. The GluK1 plasmid was kindly provided by Geoffrey Swanson. The cDNAs of all three NMDA receptor subunits were gifts from John Woodward. All DNA plasmids were propagated using Escherichia coli host (DH5α) and purified using QIAGEN DNA purification kits.
All of the receptors were transiently expressed in HEK-293S cell. HEK-293S cells were maintained in Dulbecco's modified Eagle's medium (DMEM) supplemented with 10% fetal bovine serum and 1% penicillin in a 37° C., 5% CO2, humidified incubator. Receptors were transiently transfected by using calcium phosphate or lipofectamine 2000 (Invitrogen). The DNA plasmids encoding green fluorescent protein (GFP) and T-antigen (TAg) were cotransfected in HEK-293 S cells. […]
The procedure for whole-cell current recording to assay the inhibitory property of an RNA aptamer is known to those of skill in the art and has been previously described^7. […] The whole-cell current was recorded using an Axopatch-200B amplifier at a cutoff frequency of 2-20 kHz by a built-in, eight-pole Bessel filter and digitized at 5-50 kHz sampling frequency using a Digidata 1322A from Axon Instruments (Molecular Devices, Sunnyvale, Calif.). […]

GluA2Qflip = biological target: T2, GluA2Qflip (Rattus norvegicus, UniProt P19491); assay: Laser-pulse photolysis of caged glutamate, channel-opening kinetics; type: cell-based
T2 construct: expressed in transfected cells; host or cells: HEK-293S
Excerpt: The use of the laser-pulse photolysis technique to measure the channel-opening kinetics has been described^7. […] In the laser-pulse photolysis measurement of channel opening, a single laser pulse at 355 nm with a pulse length of 8 ns was generated from a pulsed Q-switched Nd:YAG laser (Continuum, Santa Clara, Calif.). The pulse energy varied in the range of 200-800 μJ, measured at the end of an optical fiber (300 μm core diameter) into which the laser was coupled. […] The current amplitudes obtained from this calibration were compared with the amplitude from the laser measurement with reference to the dose-response relationship. These measurements also allowed us to monitor any damage to the receptors and/or the cell for successive laser experiments with the same cell^7.
To deliver AG56 to a HEK-293 cell, a “Ψ”-shaped flow device was used. […] In all experiments reported in this study, a 6-second preincubation flow protocol was used for full aptamer preincubation. […] The corrected current amplitude was used for data analysis.
The use of this technique allows the investigation of the effect of AG56 on the channel-opening kinetic mechanism of the GluA2Qflip receptors. Before describing how the mechanism of inhibition is elucidated, the kinetic characterization of channel-opening rate process is presented.
A represents the active form of the receptor, L, the ligand, ALn the closed-channel forms, and ALn the open-channel form, K1 the intrinsic dissociation constant of activating ligand and Φ the channel opening equilibrium constant (Φ^−1=kcl/kop). Based on this mechanism and the assumption that the ligand-binding rate was fast as compared to the channel opening, the observed rate constant of channel opening or kobs can be formulated as in equ. 2.
In equ. 2, kcl is the channel-closing rate constant or the lifetime of the channel, τ (τ=1/kcl), kop is the channel-opening rate constant, and n the number of the ligand molecules to bind to the receptor complex to open the channel (i.e., n=1-4). Imax is the maximum current amplitude, and It is the current amplitude at time t.
The mechanism of inhibition was characterized by studying the effect of an inhibitor such as AG56 on the channel-opening rate process^13,14. In general there are three ways in which an ion channel receptor can be inhibited. For instance, an inhibitor binds only to the open-channel state or conformation and then inhibits it (Mechanism 1, uncompetitive mechanism of inhibition or open-channel blockade). Alternatively, an inhibitor binds to both the closed- and open-channel states through a regulatory site (Mechanism 2, noncompetitive mechanism). The observed rate constant, kobs in the presence and absence of an inhibitor can be measured using equ. 3. […] 4 for mechanism 1, and equ. 5 for mechanism 2.
In deriving these equations, one binding site for inhibitor per receptor molecule is assumed. […] 4 or 5 to the overall rate, kobs, is negligible. Under this condition, the effect of the inhibitor on the kcl can be measured^13. Specifically, for both Mechanisms 1 and 2, the effects of the inhibitor on kcl are the same, and can be obtained by equ. 6, which can be derived from either equ. 4 or 5. From equ. 6, the equilibrium dissociation constant of the inhibitor from the open-channel state, KI, can be determined.
For Mechanism 2 or a noncompetitive mechanism of inhibition, the inhibitor will affect kop additionally (equ. 8), if KI<I, I being the molar concentration used to measure the KI value. Consequently the dissociation constant of the inhibitor for the closed-channel conformation can be further determined for Mechanism 2. It should be emphasized that the presence of an inhibitory effect of a noncompetitive inhibitor is due to the fact that the inhibitor must first bind to the closed-channel conformation, as illustrated in Mechanism 2, shown above. […]

[1] = 100 μM photolytically released glutamate

T2 sequence (P19491 22-883 isoform P19491-2): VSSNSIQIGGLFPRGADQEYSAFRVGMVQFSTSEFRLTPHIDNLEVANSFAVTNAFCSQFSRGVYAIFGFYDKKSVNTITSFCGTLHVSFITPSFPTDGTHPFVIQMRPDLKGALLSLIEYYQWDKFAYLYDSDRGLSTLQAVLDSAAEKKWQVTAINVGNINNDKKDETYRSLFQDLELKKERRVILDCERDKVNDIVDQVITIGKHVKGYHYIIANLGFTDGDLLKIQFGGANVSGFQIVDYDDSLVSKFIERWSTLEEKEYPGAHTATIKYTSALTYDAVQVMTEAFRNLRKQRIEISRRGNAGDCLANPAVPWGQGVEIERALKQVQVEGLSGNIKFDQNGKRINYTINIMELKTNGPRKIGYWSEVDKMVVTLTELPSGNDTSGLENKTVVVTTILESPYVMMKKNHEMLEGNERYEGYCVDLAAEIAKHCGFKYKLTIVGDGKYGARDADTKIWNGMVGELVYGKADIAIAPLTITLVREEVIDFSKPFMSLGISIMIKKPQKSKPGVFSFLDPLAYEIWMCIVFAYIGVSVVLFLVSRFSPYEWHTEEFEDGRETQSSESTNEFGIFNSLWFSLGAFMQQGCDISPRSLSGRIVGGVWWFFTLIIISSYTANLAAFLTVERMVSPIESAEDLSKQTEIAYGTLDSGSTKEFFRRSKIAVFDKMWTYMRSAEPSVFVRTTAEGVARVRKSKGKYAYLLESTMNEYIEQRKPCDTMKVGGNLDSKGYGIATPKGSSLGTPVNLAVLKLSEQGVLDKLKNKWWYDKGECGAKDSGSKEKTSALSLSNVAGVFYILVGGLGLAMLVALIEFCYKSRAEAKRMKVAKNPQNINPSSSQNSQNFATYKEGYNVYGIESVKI
T1 sequence (P42260 32-908): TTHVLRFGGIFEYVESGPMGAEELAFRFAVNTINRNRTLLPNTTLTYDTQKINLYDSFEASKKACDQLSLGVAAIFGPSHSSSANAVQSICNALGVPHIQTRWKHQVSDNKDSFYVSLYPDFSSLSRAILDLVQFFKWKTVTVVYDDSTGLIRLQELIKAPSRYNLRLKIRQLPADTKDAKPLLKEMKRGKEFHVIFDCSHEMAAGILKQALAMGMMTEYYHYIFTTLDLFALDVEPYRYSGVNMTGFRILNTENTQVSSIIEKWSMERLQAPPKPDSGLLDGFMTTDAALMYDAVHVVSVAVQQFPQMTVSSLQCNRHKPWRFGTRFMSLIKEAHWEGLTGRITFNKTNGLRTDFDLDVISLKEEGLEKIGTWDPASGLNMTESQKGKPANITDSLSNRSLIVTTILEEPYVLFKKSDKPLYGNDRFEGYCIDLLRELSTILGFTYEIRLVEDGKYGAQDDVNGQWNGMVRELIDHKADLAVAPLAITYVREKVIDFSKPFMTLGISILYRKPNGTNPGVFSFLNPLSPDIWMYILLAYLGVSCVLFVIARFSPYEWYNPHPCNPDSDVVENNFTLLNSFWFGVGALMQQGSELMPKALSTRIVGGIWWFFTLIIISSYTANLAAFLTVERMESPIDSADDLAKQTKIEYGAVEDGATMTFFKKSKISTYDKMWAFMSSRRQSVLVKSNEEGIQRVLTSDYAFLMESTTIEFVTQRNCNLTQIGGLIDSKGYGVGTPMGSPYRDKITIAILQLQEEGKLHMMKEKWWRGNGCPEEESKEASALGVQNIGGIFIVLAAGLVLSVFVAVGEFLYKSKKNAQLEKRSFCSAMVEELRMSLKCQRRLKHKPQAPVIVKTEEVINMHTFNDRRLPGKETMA

## AG56: 56-nucleotide truncated version of AG1407, RNA aptamer (GGGAGAUUGUGAAGCGUAGGCUCGAGUUUGUCCCGCGAGCCAAAGAUUCCAGACCC; RNA, backbone not given here)
GluK2
  effect on kainate receptor channel: did not affect
GluA2Qflip; [1]
  effect on channel-closing rate (kcl): inhibited the rate of channel closing
  effect on current amplitude: did not affect the current amplitude
GluA2Qflip; 100 μM photolytically released glutamate, +0.75 μM AG56 (control 2,200)
  kobs value, which reflected kcl: 1,600 s^−1
GluA2Qflip; 340 μM photolytically released glutamate, 0.75 μM AG56 (absence 5,128)
  kobs value, which reflected kop: 4,405 s^−1
GluA2Qflip; higher glutamate concentration
  effect on current amplitude: reduced the current amplitude
GluA2Qflip; increased glutamate concentration
  effect on channel-opening rate constant (kop): did not inhibit kop
